Read-outs that look alike come from different tables or passages of the source.
Experiments:
[1] = 0.15 M NaCl, 25° C.; cited from earlier work
[2] = Equilibrium study of Bi(AAZTA): competition of AAZTA with NTA for Bi^3+ by UV-spectrophotometry; type: physicochemical; conditions: 0.15 M NaClO4
Protocol: The stability constant of Bi(AAZTA) was determined by following the competition reaction of AAZTA with NTA for Bi^3+ (Eq. (10)) with UV-spectrophotometry in the wavelength range of 210-350 nm. The concentration of Bi^3+ and NTA was 30.2 μM and 10 mM while that of the AAZTA was varied between 0 and 50 μM (6×2 mL samples with the addition of AAZTA to the pre-prepared Bi(NTA)2 complex) in 0.15 M NaClO4 solution. The pH was adjusted to pH=7.4 by stepwise addition of concentrated NaOH or HClO4. The samples were kept at 50° C. for a week and at 25° C. for two weeks in order to attain the equilibrium (the time needed to reach the equilibria was determined by spectrophotometry). The spectrophotometric measurements were made with the use of PerkinElmer Lambda 365 UV-Vis spectrophotometer at 25° C., using 1.0 cm cells. For the equilibrium calculation, the protonation constants of AAZTA and NTA ligands (AAZTA: log K1^H=10.29, log K2^H=6.51, log K3^H=3.86, log K4^H=1.94, log K5^H=1.00; NTA: log K1^H=9.22, log K2^H=2.98, log K3^H=1.06; 25° C., 0.15 M NaClO4) and the stability constants of Bi(NTA) and Bi(NTA)2 complexes (log KBi(NTA)=16.97, log βBi(NTA)2=26.21, 25° C., 0.15 M NaClO4) have been determined as it is described in the literature (Baranyai, Eur. J. Inorg. Chem., 2013, 147-162, KARADAKOV, Talanta, 1970, 17, 883-887). The equilibrium constants were calculated with the program PSEQUAD (L. Zekany and I. Nagypal in PSEQUAD, Vol. (Ed. D. Leggett), Springer US, 1985, pp. 291-353). Bi(NTA)2+HxAAZTA ? Bi(AAZTA)+2HyNTA (10) Thermodynamic stability constant of Bi(AAZTA) calculated from the UV-spectrophotometric studies of Bi^3+-NTA-AAZTA systems is log KBi(AAZTA)=26.45 (6) at 25° C. in 0.15 M NaClO4. By taking into account the protonation constant of AAZTA ligand (log K1^H=10.29, log K2^H=6.51, log K3^H=3.86, log K4^H=1.94, log K5^H=1.00, 25° C., 0.15 M NaClO4) and the stability constant of Bi(AAZTA) (log KBi(AAZTA)=26.45, 25° C. in 0.15 M NaClO4), the conditional stability constant of Bi(AAZTA) was calculated to be log K^condBi(AAZTA)=log KBi(AAZTA)/(1+αH)=23.5 at pH=7.4 and 25° C. in 0.15 M NaClO4 (αH=K1^H[H^+]+K1^HK2^H[H^+]^2+ . . . +K1^HK2^H . . . Kn^H[H^+]^n and K1^H, K2^H, . . . Kn^H are the protonation constant of the free ligand at pH=7.4 in 0.15 M NaClO4 solution).

[3] = type: physicochemical; conditions: 25° C., 0.15 M NaCl
Description: The thermodynamic properties of Sc(AAZTA-TATE) complex were characterized by the conditional stability constant (log K^cond=log K^therm/(1+αH) where αH=K1^H[H^+]+K1^HK2^H[H^+]^2+ . . . +K1^HK2^H . . . Kn^H[H^+]^n and K1^H, K2^H, . . . Kn^H are the protonation constant of the free ligand) at pH=7.4 in 0.15 M NaCl solution. To determine the log K^cond value of Sc(AAZTA-TATE) complex, the competition reaction of AAZTA-TATE with NTA for Sc^3+ have been studied by ^45Sc NMR spectroscopy (Bruker Avance III 400 spectrometer at 9.4 T) with the integral of Sc(NTA)2 complex (δSc=59.9 ppm) formed in the reactions (Eq. (4), H3NTA=nitrilo-triacetic acid, pH=7.4, 25° C., 0.15 M NaCl).
[formula] For the equilibrium characterization of Sc(AAZTA-TATE), 7 samples were prepared in which the concentration of Sc^3+ and AAZTA-TATE was 203.3 μM and 206.2 μM, while that of the NTA was varied between 0.0 and 20.06 mM (7×1 mL samples were prepared by the addition of AAZTA-TATE to the pre-prepared Sc(NTA)2 complex) in 0.15 M NaCl solution. […] The samples were kept at 25° C. for 8 weeks in order to attain the equilibrium (the time needed to reach the equilibria was determined by ^45Sc NMR spectroscopy).
To compare the equilibrium properties of Sc(AAZTA-TATE) with that of Sc(AAZTA), the conditional stability constant of Sc(AAZTA) was determined by following the competition reaction of AAZTA with NTA for Sc^3+ with ^45Sc NMR spectroscopy by using the integral of Sc(NTA)2 complex (δSc=59.9 ppm) formed in the reactions (Eq. (5), pH=7.4, 25° C., 0.15 M NaCl).
For the equilibrium characterization of Sc(AAZTA), 7 samples were prepared in which the concentration of Sc^3+ and AAZTA was 203.3 μM and 207.1 μM, while that of the NTA was varied between 0 and 20.06 mM (7×2 mL samples with the addition of AAZTA to the pre-prepared […] complex) in 0.15 M NaCl solution. […] The samples were kept at 25° C. for 8 weeks in order to attain the equilibrium (the time needed to reach the equilibria was determined by ^45Sc NMR spectroscopy). […]

[4] = Transchelation reaction between Bi(AAZTA) and DTPA by UV-spectrophotometry; type: physicochemical; conditions: pH=9.0, 25° C., 0.15 M NaClO4
Protocol: The kinertic properties of Bi(AAZTA) was determined by following the transchelation reaction between Bi(AAZTA) and DTPA with UV-spectrophotometry at 278 nm and 25° C. in 0.15 M NaClO4 solution (stability constant of Bi(DTPA) is log KBi(DTPA)=29.3 at 25° C. in 0.6 M NaClO4, V. Kornev, A. Troubachev, Russ. J. Inorg. Chem, 1987, 32, 1419). In these experiments the concentration of Bi(AAZTA) was 0.1 mM while DTPA was applied in 10 and 20 fold excess to ensure the occurrence of pseudo-first order conditions. The pH was adjusted to 8.5, 9.0, 9.5, 10.0, 10.5 and 11.0 by stepwise addition of concentrated NaOH or HClO4. For keeping the pH values constant 0.01 M N-methyl-piperazine (pH≤10) buffers were used. At pH>10, buffer was not used to keep the constant pH due to the presence of OH^− in a high concentration. The pseudo-first-order rate constants (kd) were calculated by fitting the absorbance—time data sets for Bi(AAZTA)—DTPA system to Eq. (9). The dissociation rates (kd) of Bi(AAZTA) complex is independent from the [DTPA] and increase with the increase of pH.

CC1(N(CC(=O)O)CC(=O)O)CN(CC(=O)O)CCN(CC(=O)O)C1 [AAZTA, 6-amino-6-methylperhydro-1,4-diazepinetetraacetic acid]
log K1^H (protonation constant) [1]: 9.98
log K2^H (protonation constant) [1]: 6.52
log K3^H (protonation constant) [1]: 3.76
log K4^H (protonation constant) [1]: 2.21
log K1^H (protonation constant) ([2]; 25° C.): 10.29
log K2^H (protonation constant) ([2]; 25° C.): 6.51
log K3^H (protonation constant) ([2]; 25° C.): 3.86
log K4^H (protonation constant) ([2]; 25° C.): 1.94
log K5^H (protonation constant) ([2]; 25° C.): 1.00

O=C(O)CN(CC(=O)O)CC(=O)O [NTA, nitrilo-triacetic acid, reference compound]
log K1^H (protonation constant) ([2]; NTA ligand, 25° C.): 9.22
log K2^H (protonation constant) ([2]; NTA ligand, 25° C.): 2.98
log K3^H (protonation constant) ([2]; NTA ligand, 25° C.): 1.06
log K1^H (protonation constant) [3]: 9.13 (1)
log K2^H (protonation constant) [3]: 2.63 (2)
log K3^H (protonation constant) [3]: 1.64 (3)

CC1(N(CC(=O)[O-])CC(=O)[O-])CN(CC(=O)[O-])CCN(CC(=O)[O-])C1.[Bi+3] [Bi(AAZTA)]
log KBi(AAZTA) (thermodynamic stability constant) ([2]; 25° C.): 26.45 (6)
log K^cond (conditional stability constant) ([2]; pH=7.4, 25° C.): 23.5
kd (rate constant of dissociation) [4]: 1.67e-06 s⁻¹

Reference: US11684682B2, “Chelating AAZTA conjugates and complexes thereof” (BRACCO IMAGING S.P.A., priority 2018, dated 2023)
